Results reported in the NIST ThermoML archive (doi:10.1021/je800110r).
Numbers after ± are expanded uncertainties.

Settings: 283.15 K, Liquid, Vibrating tube method

CCCCCCCCCC [decane]
mass density (3625 kPa): 740.1 ± 2 kg/m3
mass density (3634 kPa): 740.1 ± 2 kg/m3
mass density (3651 kPa): 740.3 ± 2 kg/m3
mass density (3666 kPa): 740.1 ± 2 kg/m3
mass density (3675 kPa): 740.1 ± 2 kg/m3
mass density (3689 kPa): 740 ± 2 kg/m3
mass density (3701 kPa): 740.1 ± 2 kg/m3
mass density (3713 kPa): 740.1 ± 2 kg/m3
mass density (3724 kPa): 740.1 ± 2 kg/m3
mass density (3735 kPa): 740.2 ± 2 kg/m3
mass density (3748 kPa): 740.2 ± 2 kg/m3
mass density (3759 kPa): 740 ± 2 kg/m3
mass density (3774 kPa): 740.2 ± 2 kg/m3
mass density (3789 kPa): 740.1 ± 2 kg/m3
mass density (3800 kPa): 740.1 ± 2 kg/m3
mass density (3899 kPa): 740.2 ± 2 kg/m3
mass density (3917 kPa): 740.3 ± 2 kg/m3
mass density (3930 kPa): 740.1 ± 2 kg/m3
mass density (3945 kPa): 740.3 ± 2 kg/m3
mass density (3957 kPa): 740.3 ± 2 kg/m3
mass density (3968 kPa): 740.3 ± 2 kg/m3
mass density (3982 kPa): 740.4 ± 2 kg/m3
mass density (3992 kPa): 740.4 ± 2 kg/m3
mass density (4007 kPa): 740.4 ± 2 kg/m3
mass density (4017 kPa): 740.3 ± 2 kg/m3
mass density (4031 kPa): 740.3 ± 2 kg/m3
mass density (4042 kPa): 740.3 ± 2 kg/m3
mass density (4055 kPa): 740.3 ± 2 kg/m3
mass density (4085 kPa): 740.4 ± 2 kg/m3
mass density (4096 kPa): 740.2 ± 2 kg/m3
mass density (4114 kPa): 740.5 ± 2 kg/m3
mass density (4129 kPa): 740.3 ± 2 kg/m3
mass density (4147 kPa): 740.4 ± 2 kg/m3
mass density (4160 kPa): 740.5 ± 2 kg/m3
mass density (4179 kPa): 740.5 ± 2 kg/m3
mass density (4197 kPa): 740.4 ± 2 kg/m3
mass density (4212 kPa): 740.5 ± 2 kg/m3
mass density (4229 kPa): 740.4 ± 2 kg/m3
mass density (4247 kPa): 740.5 ± 2 kg/m3
mass density (4263 kPa): 740.4 ± 2 kg/m3
mass density (4277 kPa): 740.5 ± 2 kg/m3
mass density (4292 kPa): 740.5 ± 2 kg/m3
mass density (4306 kPa): 740.6 ± 2 kg/m3
mass density (4321 kPa): 740.4 ± 2 kg/m3
mass density (4333 kPa): 740.6 ± 2 kg/m3
mass density (4349 kPa): 740.5 ± 2 kg/m3
mass density (4362 kPa): 740.6 ± 2 kg/m3
mass density (4394 kPa): 740.6 ± 2 kg/m3
mass density (4410 kPa): 740.5 ± 2 kg/m3
mass density (4424 kPa): 740.5 ± 2 kg/m3
mass density (4437 kPa): 740.5 ± 2 kg/m3
mass density (4455 kPa): 740.7 ± 2 kg/m3
mass density (4468 kPa): 740.6 ± 2 kg/m3
mass density (4484 kPa): 740.7 ± 2 kg/m3
mass density (4499 kPa): 740.7 ± 2 kg/m3
mass density (4514 kPa): 740.7 ± 2 kg/m3
mass density (4533 kPa): 740.6 ± 2 kg/m3
mass density (4549 kPa): 740.8 ± 2 kg/m3
mass density (4565 kPa): 740.7 ± 2 kg/m3
mass density (4579 kPa): 740.7 ± 2 kg/m3
mass density (4603 kPa): 740.8 ± 2 kg/m3
mass density (4628 kPa): 740.7 ± 2 kg/m3
mass density (4648 kPa): 740.8 ± 2 kg/m3
mass density (4667 kPa): 740.7 ± 2 kg/m3
mass density (4770 kPa): 740.8 ± 2 kg/m3
mass density (4791 kPa): 740.9 ± 2 kg/m3
mass density (4811 kPa): 740.9 ± 2 kg/m3
mass density (4835 kPa): 740.9 ± 2 kg/m3
mass density (5291 kPa): 741.2 ± 2 kg/m3
mass density (5334 kPa): 741.3 ± 2 kg/m3
mass density (5356 kPa): 741.3 ± 2 kg/m3
mass density (5377 kPa): 741.3 ± 2 kg/m3
mass density (5399 kPa): 741.3 ± 2 kg/m3
mass density (5421 kPa): 741.4 ± 2 kg/m3
mass density (5444 kPa): 741.4 ± 2 kg/m3
mass density (5463 kPa): 741.4 ± 2 kg/m3
mass density (5486 kPa): 741.3 ± 2 kg/m3
mass density (5505 kPa): 741.3 ± 2 kg/m3
mass density (5529 kPa): 741.5 ± 2 kg/m3
mass density (5549 kPa): 741.4 ± 2 kg/m3
mass density (5573 kPa): 741.5 ± 2 kg/m3
mass density (5624 kPa): 741.5 ± 2 kg/m3
mass density (5644 kPa): 741.5 ± 2 kg/m3
mass density (5662 kPa): 741.5 ± 2 kg/m3
mass density (5674 kPa): 741.4 ± 2 kg/m3
mass density (5686 kPa): 741.6 ± 2 kg/m3
mass density (5700 kPa): 741.6 ± 2 kg/m3
mass density (5719 kPa): 741.6 ± 2 kg/m3
mass density (5736 kPa): 741.5 ± 2 kg/m3
mass density (5778 kPa): 741.6 ± 2 kg/m3
mass density (5790 kPa): 741.5 ± 2 kg/m3
mass density (5806 kPa): 741.6 ± 2 kg/m3
mass density (5819 kPa): 741.7 ± 2 kg/m3
mass density (5838 kPa): 741.6 ± 2 kg/m3
mass density (5851 kPa): 741.6 ± 2 kg/m3
mass density (5852 kPa): 741.7 ± 2 kg/m3
mass density (5870 kPa): 741.7 ± 2 kg/m3
mass density (5887 kPa): 741.7 ± 2 kg/m3
mass density (5909 kPa): 741.6 ± 2 kg/m3
mass density (5920 kPa): 741.7 ± 2 kg/m3
mass density (5926 kPa): 741.7 ± 2 kg/m3
mass density (5930 kPa): 741.8 ± 2 kg/m3
mass density (5942 kPa): 741.8 ± 2 kg/m3
mass density (5960 kPa): 741.7 ± 2 kg/m3
mass density (5977 kPa): 741.8 ± 2 kg/m3
mass density (5991 kPa): 741.8 ± 2 kg/m3
mass density (6008 kPa): 741.7 ± 2 kg/m3
mass density (6025 kPa): 741.8 ± 2 kg/m3
mass density (6043 kPa): 741.7 ± 2 kg/m3
mass density (6063 kPa): 741.7 ± 2 kg/m3
mass density (6081 kPa): 741.8 ± 2 kg/m3
mass density (6102 kPa): 741.8 ± 2 kg/m3
mass density (6122 kPa): 741.9 ± 2 kg/m3
mass density (6142 kPa): 741.8 ± 2 kg/m3
mass density (6161 kPa): 741.9 ± 2 kg/m3
mass density (6626 kPa): 742.2 ± 2 kg/m3
mass density (6649 kPa): 742.2 ± 2 kg/m3
mass density (6666 kPa): 742.3 ± 2 kg/m3
mass density (6683 kPa): 742.2 ± 2 kg/m3
mass density (6712 kPa): 742.2 ± 2 kg/m3
mass density (6729 kPa): 742.3 ± 2 kg/m3
mass density (6755 kPa): 742.2 ± 2 kg/m3
mass density (6775 kPa): 742.3 ± 2 kg/m3
mass density (6805 kPa): 742.3 ± 2 kg/m3
mass density (6826 kPa): 742.4 ± 2 kg/m3
mass density (6843 kPa): 742.2 ± 2 kg/m3
mass density (6861 kPa): 742.4 ± 2 kg/m3
mass density (6877 kPa): 742.3 ± 2 kg/m3
mass density (6905 kPa): 742.4 ± 2 kg/m3
mass density (6933 kPa): 742.4 ± 2 kg/m3
mass density (6948 kPa): 742.3 ± 2 kg/m3
mass density (6967 kPa): 742.4 ± 2 kg/m3
mass density (6996 kPa): 742.4 ± 2 kg/m3
mass density (7021 kPa): 742.3 ± 2 kg/m3
mass density (7041 kPa): 742.4 ± 2 kg/m3
mass density (7058 kPa): 742.5 ± 2 kg/m3
mass density (7077 kPa): 742.5 ± 2 kg/m3
